Source: ChEMBL document CHEMBL6120994, “Unravelling the potential of natural chelating agents in the control of Staphylococcus aureus and Pseudomonas aeruginosa biofilms” (Eur J Med Chem, 2025)
Values after ≈ are worked out from the molar mass of the structure shown.

Legend:
[1] = Metal chelating activity assessed as compound-Fe(III) complex formation by measuring RhB degradation in MgO2/Fe(III) system measured within 30 mins by UV-Visible spectrophotometry
Pseudomonas aeruginosa [2] = assay: Bactericidal activity against Pseudomonas aeruginosa ATCC 10145 assessed as bacterial killing incubated in MHB for 24 hrs and measured following culturing on agar plate for 24 hrs; assay type: functional; conditions: time 48 hrs
Staphylococcus aureus [3] = assay: Bactericidal activity against Staphylococcus aureus CECT 976 assessed as bacterial killing incubated in MHB for 24 hrs and measured following culturing on agar plate for 24 hrs; assay type: functional; conditions: time 48 hrs
Pseudomonas aeruginosa [4] = assay: Antibacterial activity against Pseudomonas aeruginosa ATCC 10145 assessed as inhibition of bacterial growth incubated for 24 hrs by broth microdilution method; assay type: functional
Staphylococcus aureus [5] = assay: Antibacterial activity against Staphylococcus aureus CECT 976 assessed as inhibition of bacterial growth incubated for 24 hrs by broth microdilution method; assay type: functional

Row | SMILES | Activity [1] [%] | MBC (Pseudomonas aeruginosa [2]) [µg/mL] | MBC (Staphylococcus aureus [3]) [µg/mL] | MIC (Pseudomonas aeruginosa [4]) [µg/mL] | MIC (Staphylococcus aureus [5]) [µg/mL]
1 | O=C(O)C(=O)O | 48.9 | – | – | – | –
2 | O=C(O)[C@@H](O)[C@H](O)C(=O)O | 98.5 | – | – | – | –
3 | O=C(O)c1cn(C2CC2)c2cc(N3CCNCC3)c(F)cc2c1=O [CIPROFLOXACIN] | – | 32 (≈ 96.6 µM) | 8 (≈ 24.1 µM) | 32 (≈ 96.6 µM) | –
4 | O=C(O)CC(O)(CC(=O)O)C(=O)O | 42.3 | – | – | – | –
5 | NC[C@H]1O[C@H](O[C@H]2[C@H](O)[C@@H](O[C@H]3O[C@H](CO)[C@@H](O)[C@H](N)[C@H]3O)[C@H](N)C[C@@H]2N)[C@H](N)C[C@@H]1O [TOBRAMYCIN] | – | 16 (≈ 34.2 µM) | 4 (≈ 8.56 µM) | 8 (≈ 17.1 µM) | 4 (≈ 8.56 µM)
6 | O=C(O)CN(CCN(CC(=O)O)CC(=O)O)CC(=O)O | 25.8 | – | – | – | –
